Data taken from patent publication US9981925B2, “Substituted benzo[d][1,2,3]triazines as p70S6K inhibitors” (Merck Patent GmbH, priority 2012, dated 2018).

What was measured:
p70S6K (T412E mutant) = p70S6K (T412E mutant) (Homo sapiens (Human), UniProt P23443, T412E); assay: p70S6K enzyme assay; type: biochemical; conditions: 24 μM ATP, 90 min at 25° C., Caliper mobility shift
Protocol: p70S6K inhibitor compounds were diluted and plated in 96 well plates. A reaction mixture including the following components were then added to the compound plate to initiate the enzyme reaction: p70S6K (3 nM, T412E mutant, Millipore) was mixed with 24 μM ATP in an assay buffer containing 100 mM Hepes (pH 7.5), 5 mM MgCl2, 1 mM DTT, 0.015% Brij and 1 μM of the substrate peptide FITC-AHA-[…]-OH (derived from the S6 ribosomal protein sequence, FITC=fluorescein isothiocyanate, AHA=6-aminohexanoic acid). The reaction was incubated for 90 min at 25° C., before the addition of 10 mM EDTA to stop the reaction. The proportion of substrate and product (phosphorylated) peptide was analyzed on a Caliper Life Sciences Lab Chip 3000, using a pressure of −1.4 psi, and upstream and downstream voltages of −3000 and −700, respectively. Product peaks were resolved before substrate peaks on the resulting chromatograms. To assess the inhibitory potential of the compounds, IC50 values were determined, as shown above.

His-AKT (Full Length) = His-AKT (Full Length) (Homo sapiens (Human), UniProt P31749); assay: AKT/PKB kinase assay; type: biochemical; conditions: 160 μM ATP, 90 min at 25° C., Caliper mobility shift
His-AKT (Full Length), sequence (P31749 whole entry): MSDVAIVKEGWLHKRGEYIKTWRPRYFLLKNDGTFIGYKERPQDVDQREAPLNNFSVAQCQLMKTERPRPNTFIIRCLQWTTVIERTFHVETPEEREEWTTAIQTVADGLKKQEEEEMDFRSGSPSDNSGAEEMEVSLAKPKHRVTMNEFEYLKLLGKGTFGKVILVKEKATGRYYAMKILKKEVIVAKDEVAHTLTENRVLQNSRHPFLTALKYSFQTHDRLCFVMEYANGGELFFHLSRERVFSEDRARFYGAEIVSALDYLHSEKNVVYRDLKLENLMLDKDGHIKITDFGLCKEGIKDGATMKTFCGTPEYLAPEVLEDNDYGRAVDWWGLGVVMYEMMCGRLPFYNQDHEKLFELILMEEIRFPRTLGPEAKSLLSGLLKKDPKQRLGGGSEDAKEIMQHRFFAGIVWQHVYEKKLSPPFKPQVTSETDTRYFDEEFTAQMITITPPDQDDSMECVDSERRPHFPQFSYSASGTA
Protocol: In order to measure AKT inhibition in the Caliper Life Sciences LC3000, a TTP Mosquito liquid handling instrument was used to place 125 nl of the appropriate concentration of inhibitor in 100% DMSO (for a dose response curve calculation) into each well of a 384-well plate. To this reaction, the following components were added to a final volume of 12.5 μl: • 0.1 ng/μl His-AKT (Full Length) (Invitrogen, Part # P2999, Lot #641228C); • 160 μM ATP (Fluka, 02055); • 1 mM DTT (Sigma, D0632); • 1 mM MgCl2 (Sigma, M1028); • 1 μM substrate peptide (sequence FITC-AHA-[…]-NH2), synthesized by • Tufts Peptide Synthesis service; • 100 mM HEPES pH 7.5 (Calbiochem, 391338); and • 0.015% Brij-35 (Sigma, B4184).
The reaction was incubated for 90 min at 25° C., and then stopped by the addition of 70 μl of Stop buffer (100 mM HEPES pH 7.5, 0.015% Brij-35, 10 mM EDTA (Sigma, E7889)). The plate was read on a Caliper LC 3000 in an Off-Chip mobility shift assay format, using the following parameters for a 12-sipper chip: screening pressure −2.3 psi, upstream voltage −500, and downstream voltage −3000. These conditions cause unphosphorylated substrate and phosphorylated product peptide to resolve as separate peaks allowing direct measurement of percentage of conversion of substrate to product. The percent conversion was plotted against concentration of inhibitor to produce a sigmoidal dose response curve, from which an IC50 was calculated.

p70S6K (T412E mutant), sequence (P23443 whole entry T412E): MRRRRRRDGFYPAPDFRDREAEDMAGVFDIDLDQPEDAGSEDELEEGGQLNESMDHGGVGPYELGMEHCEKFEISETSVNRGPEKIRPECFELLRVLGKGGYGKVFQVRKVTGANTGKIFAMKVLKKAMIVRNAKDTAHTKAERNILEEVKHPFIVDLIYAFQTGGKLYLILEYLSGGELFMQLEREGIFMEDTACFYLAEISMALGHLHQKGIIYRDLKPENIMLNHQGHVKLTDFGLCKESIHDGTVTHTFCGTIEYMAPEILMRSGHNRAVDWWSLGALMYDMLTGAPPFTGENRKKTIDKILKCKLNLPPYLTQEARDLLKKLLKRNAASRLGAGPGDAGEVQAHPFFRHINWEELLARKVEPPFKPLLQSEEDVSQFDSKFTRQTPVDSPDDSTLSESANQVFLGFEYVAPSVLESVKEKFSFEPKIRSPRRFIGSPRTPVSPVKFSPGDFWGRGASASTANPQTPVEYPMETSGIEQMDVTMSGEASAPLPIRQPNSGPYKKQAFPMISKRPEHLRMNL

Structure (SMILES) | IC50 (p70S6K (T412E mutant)) | IC50 (His-AKT (Full Length))
NC(=O)c1cccc2c(NCc3cccc(C(F)(F)F)c3)nnnc12 [Compound 1, 4-(3-Trifluoromethyl-benzylamino)-benzo[d][1,2,3]triazine-8-carboxamide] | 101 to 500 nM | > 1000 nM
NC(=O)c1cccc2c(NCc3ccc(Cl)c(Cl)c3)nnnc12 [Compound 2, 4-((3,4-dichlorobenzyl)amino)benzo[d][1,2,3]triazine-8-carboxamide] | < 25 nM | > 1000 nM
NC(=O)c1cccc2c(NCc3cccnc3)nnnc12 [Compound 3, 4-((pyridin-3-ylmethyl)amino)benzo[d][1,2,3]triazine-8-carboxamide] | > 1000 nM | > 1000 nM
NC(=O)c1cccc2c(NCc3ccc(Cl)c(C(F)(F)F)c3)nnnc12 [Compound 4, 4-((4-chloro-3-(trifluoromethyl)benzyl)amino)benzo[d][1,2,3]triazine-8-carboxamide] | < 25 nM | > 1000 nM
NC(=O)c1cccc2c(NCc3ccccn3)nnnc12 [Compound 5, 4-((pyridin-2-ylmethyl)amino)benzo[d][1,2,3]triazine-8-carboxamide] | > 1000 nM | > 1000 nM
NC(=O)c1cccc2c(NCc3ccccc3)nnnc12 [Compound 6, 4-(benzylamino)benzo[d][1,2,3]triazine-8-carboxamide] | 501 to 1000 nM | > 1000 nM
NC(=O)c1cccc2c(NCc3ccc(C(F)(F)F)cn3)nnnc12 [Compound 7, 4-(((5-(trifluoromethyl)pyridin-2-yl)methyl)amino)benzo[d][1,2,3]triazine-8-carboxamide] | > 1000 nM | > 1000 nM
NC(=O)c1cccc2c(NCc3ccc(C(F)(F)F)cc3)nnnc12 [Compound 8, 4-((4-(trifluoromethyl)benzyl)amino)benzo[d][1,2,3]triazine-8-carboxamide] | 25 to 100 nM | > 1000 nM
NC(=O)c1cccc2c(NCc3cccc(F)c3)nnnc12 [Compound 9, 4-((3-fluorobenzyl)amino)benzo[d][1,2,3]triazine-8-carboxamide] | 501 to 1000 nM | > 1000 nM
COc1cc([C@@H](CN2CCC2)Nc2nnnc3c(C(N)=O)cccc23)ccc1Cl [Compound 10, (S)-4-((2-(azetidin-1-yl)-1-(4-chloro-3-methoxyphenyl)ethyl)amino)-benzo[d][1,2,3]triazine-8-carboxamide] | < 25 nM | 101 to 500 nM
COc1cc([C@@H](CN(C)C)Nc2nnnc3c(C(N)=O)cccc23)ccc1Cl [Compound 11, (S)-4-((1-(4-chloro-3-methoxyphenyl)-2-(dimethylamino)ethyl)amino)-benzo[d][1,2,3]triazine-8-carboxamide] | 25 to 100 nM | 101 to 500 nM
NC(=O)c1cccc2c(N[C@H](CN3CCC3)c3ccc(F)c(C(F)(F)F)c3)nnnc12 [Compound 12, (S)-4-((2-(azetidin-1-yl)-1-(4-fluoro-3-(trifluoromethyl)phenyl)ethyl)amino)benzo[d][1,2,3]triazine-8-carboxamide] | < 25 nM | < 25 nM
CN(C)C[C@@H](Nc1nnnc2c(C(N)=O)cccc12)c1ccc(Cl)c(C(F)(F)F)c1 [Compound 13, (S)-4-((1-(4-chloro-3-(trifluoromethyl)phenyl)-2-(dimethylamino)ethyl)amino)benzo-[d][1,2,3]triazine-8-carboxamide] | < 25 nM | < 25 nM
NC(=O)c1cccc2c(N[C@H](CN3CCC3)c3ccc(Cl)c(C(F)(F)F)c3)nnnc12 [Compound 14, (S)-4-((2-(azetidin-1-yl)-1-(4-chloro-3-(trifluoromethyl)phenyl)ethyl)amino)benzo[d][1,2,3]triazine-8-carboxamide] | < 25 nM | < 25 nM
CN(C)C[C@@H](Nc1nnnc2c(C(N)=O)cccc12)c1ccc(Cl)c(Cl)c1 [Compound 15, (S)-4-((1-(3,4-dichlorophenyl)-2-(dimethylamino)ethyl)amino)benzo[d][1,2,3]triazine-8-carboxamide] | < 25 nM | < 25 nM
NC(=O)c1cccc2c(N[C@H](CN3CCC3)c3ccc(Cl)c(Cl)c3)nnnc12 [Compound 16, (S)-4-((2-(azetidin-1-yl)-1-(3,4-dichlorophenyl)ethyl)amino)benzo[d][1,2,3]triazine-8-carboxamide] | < 25 nM | < 25 nM
CN(C)C[C@@H](Nc1nnnc2c(C(N)=O)cccc12)c1ccc(Cl)c(C#N)c1 [Compound 17, (S)-4-((1-(4-chloro-3-cyanophenyl)-2-(dimethylamino)ethyl)amino)-benzo[d][1,2,3]triazine-8-carboxamide] | 25 to 100 nM | 101 to 500 nM
N#Cc1cc([C@@H](CN2CCC2)Nc2nnnc3c(C(N)=O)cccc23)ccc1Cl [Compound 18, (S)-4-((2-(azetidin-1-yl)-1-(4-chloro-3-cyanophenyl)ethyl)amino)benzo[d][1,2,3]triazine-8-carboxamide] | < 25 nM | 101 to 500 nM
NC(=O)c1cncc2c(N[C@@H](CN3CCC3)c3ccc(Cl)c(C(F)(F)F)c3)ncnc12 [Compound 19, (R)-4-((2-(azetidin-1-yl)-1-(4-chloro-3-(trifluoromethyl)phenyl)ethyl)amino)pyrido[4,3-d]pyrimidine-8-carboxamide] | > 1000 nM | > 1000 nM
NC(=O)c1cncc2c(N[C@H](CN3CCC3)c3ccc(Cl)c(C(F)(F)F)c3)ncnc12 [Compound 20, (S)-4-((2-(azetidin-1-yl)-1-(4-chloro-3-(trifluoromethyl)phenyl)ethyl)amino)pyrido[4,3-d]pyrimidine-8-carboxamide] | < 25 nM | 25 to 100 nM
NC(=O)c1cccc2c(NC3CNCCC3c3cccc(C(F)(F)F)c3)nnnc12 (stereo not shown) [Compound 21, 4-((4-(3-(trifluoromethyl)phenyl)piperidin-3-yl)amino)benzo[d][1,2,3]triazine-8-carboxamide] | < 25 nM | < 25 nM
NC(=O)c1cccc2c(NC3CNCCC3c3ccc(C(F)(F)F)cc3)nnnc12 (stereo not shown) [Compound 22, 4-((4-(4-(trifluoromethyl)phenyl)piperidin-3-yl)amino)benzo[d][1,2,3]triazine-8-carboxamide] | < 25 nM | 101 to 500 nM
NC(=O)c1ccnc2c(NC3CNCCC3c3ccc(F)c(Cl)c3)ncnc12 (stereo not shown) [Compound 23, 4-[4-(3-Chloro-4-fluoro-phenyl)-piperidin-3-ylamino]-pyrido[3,2-d]pyrimidine-8-carboxamide] | 25 to 100 nM | 101 to 500 nM
NC(=O)c1ccnc2c(NC3CNCCC3c3ccc(C(F)(F)F)cc3)ncnc12 (stereo not shown) [Compound 25, 4-((4-(4-(trifluoromethyl)phenyl)piperidin-3-yl)amino)pyrido[3,2-d]pyrimidine-8-carboxamide] | < 25 nM | 501 to 1000 nM
CNC[C@@H](Nc1ncnc2c(C(N)=O)ccnc12)c1ccc(C(F)(F)F)c(F)c1 [Compound 26, 4-[(S)-1-(3-Fluoro-4-trifluoromethyl-phenyl)-2-methylamino-ethylamino]-pyrido[3,2-d]pyrimidine-8-carboxylic Acid Amide] | < 25 nM | < 25 nM
NC(=O)c1ccnc2c(N[C@H](CN3CCC3)c3ccc(C(F)(F)F)cc3)ncnc12 [Compound 27, 4-[(S)-2-Azetidin-1-yl-1-(4-trifluoromethyl-phenyl)-ethylamino]-pyrido[3,2-d]pyrimidine-8-carboxylic Acid Amide] | < 25 nM | 101 to 500 nM
CCNC[C@@H](Nc1ncnc2c(C(N)=O)ccnc12)c1ccc(F)c(Br)c1 [Compound 30, 4-[(S)-1-(3-Bromo-4-fluoro-phenyl)-2-ethylamino-ethylamino]-pyrido[3,2-d]pyrimidine-8-carboxylic Acid Amide] | – | 25 to 100 nM
CN(C)C[C@@H](Nc1ncnc2c(C(N)=O)ccnc12)c1ccc(Cl)c(F)c1 [Compound 53, 4-[(S)-1-(4-Chloro-3-fluoro-phenyl)-2-dimethylamino-ethylamino]-pyrido[3,2-d]pyrimidine-8-carboxylic Acid Amide] | – | 25 to 100 nM
CCNC[C@@H](Nc1ncnc2c(C(N)=O)ccnc12)c1ccc(F)c(Cl)c1 [Compound 61, 4-[(S)-1-(3-Chloro-4-fluoro-phenyl)-2-ethylamino-ethylamino]-pyrido[3,2-d]pyrimidine-8-carboxylic Acid Amide] | – | 25 to 100 nM
